Results on five molecules are retold here after patent publication US4973554A, “Affinity process for trypsin purification and stabilization” (National Research Council of Canada, priority 1987, dated 1990).

For orientation: Ki means a measure of affinity in units of concentration, obtained from inhibition or displacement.

For series [1], the target named is T1, trypsin (Bos taurus, UniProt P00760).
T1 sequence (P00760 24-246): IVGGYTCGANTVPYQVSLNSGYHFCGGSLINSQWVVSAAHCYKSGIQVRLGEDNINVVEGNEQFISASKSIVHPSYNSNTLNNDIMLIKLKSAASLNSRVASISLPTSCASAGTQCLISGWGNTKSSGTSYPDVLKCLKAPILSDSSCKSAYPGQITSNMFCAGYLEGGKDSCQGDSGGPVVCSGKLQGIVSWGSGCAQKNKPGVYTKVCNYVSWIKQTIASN
The experiment in a line: Elution of bound trypsin from affinity polymer during ultrafiltration. The note with it: for elution of bound trypsin from polymer 5:1 by eluting solution: 500 mM arginine with 10 mM Ca++ in Tris pH 8, 2M KCl with 10 mM Ca++ in pH 8 Tris, 10 mM m-aminobenzamidine, data not shown. The protocol: Investigation was next conducted on the eluting characteristics of four agents (FIG. 1).
Tests were also performed to determine whether the elution of trypsin with arginine was affected by the acrylamide:monomer ratio and the polymer concentration.

For series [2], the target named is T1, trypsin. Particulars: with respect to substrate benzoyl-L-arginine p-nitroanilide; literature; cited from earlier work.
For series [3], the target named is T1, trypsin. Nature of the series: Trypsin inhibition kinetics, substrate Nα-benzoyl-L-arginine p-nitroanilide. Format: biochemical.
In series [4] the test system is trypsin. Particulars: Adamski-Medda et al, 1981; cited from earlier work.
The test system of a further series is chymotrypsin. The note with it: Adamski-Medda et al, 1981; cited from earlier work.
Series [5] concerns the target T1, trypsin. The experiment in a line: Trypsin storage stability with/without affinity polymer (trypsin activity). It is filed as physicochemical. Particulars: without affinity polymer. The protocol: Trypsin can be adsorbed by the affinity polymer and stored until this enzyme is required for use or further processing. […] Without the affinity polymer, the trypsin retained only half of its activity at 25° C. after three days even though this solution was stabilized by adding an appropriate amount of calcium. It was further shown that at 4° C. without the affinity polymer trypsin retained approximately 70% of its original activity after 10 days.

As for `[Cl-].[K+]` [KCl], the “elution of bound trypsin from polymer 5:1 by eluting solution” value (shortened to “elution of bound trypsin”) at trypsin [1] was “eluted easily”.
For `N=C(N)c1cccc(N)c1` [m-aminobenzamidine], the “trypsin inhibition kinetics (mechanism)” value at trypsin [2] is “competitive manner”. The “inhibitor strength among ortho, meta, para aminobenzamidine” value on trypsin [3] (position of amino group compared) is recorded as “strongest inhibitor”. Moreover, the “elution of bound trypsin” value on trypsin [1] is reported as “eluted easily”.
On to dextran-p-aminobenzamidine, for which, in the series on trypsin [4], the “trypsin in the filtrate in presence of macroligand” value is on record as 24%. For the same molecule, the “chymotrypsin in the filtrate in presence of macroligand” value in the series with chymotrypsin is reported as 65%.
`N=C(N)NCCC[C@H](N)C(=O)O` [arginine, L-arginine]: the affinity on trypsin [3] corresponds to a Ki of 41 ± 3 mM. Besides, the “mechanism of trypsin inhibition” value at trypsin [3] (with respect to substrate Nα-benzoyl-L-arginine p-nitroanilide, data not shown) is reported as “competitive inhibitor”. Besides, the “elution of bound trypsin” value at trypsin [1] was “eluted easily”. Further, the “eluting characteristics of agents (FIG. 1)” value on trypsin [1] (polymer 5:1 at 0.75% containing 300 mg trypsin, four agents compared) is reported as “most effective eluting agent”.

B1: trypsin (protein, UniProt P00760 24-246, looked up)
Serine protease 1: T1 sequence (P00760 24-246)
Turning to B1, in the series with trypsin [5] (4° C., 10 days), the “original trypsin activity retained” value is recorded as “approximately 70%”. Besides, the trypsin activity retained result with trypsin [5] (25° C., three days, calcium added) was “half”.
